From patent US9566312B2, “Cyclic peptides and use as medicines” (priority 2012, dated 2017)
Where two headings read alike, the source gives them in different places. Starred links: 1 amine or outer side, 2 acyl side, 3 side chain; linkers in the order of their positions; H or OH if unused. Non-standard residues stand in square brackets, D forms with d. Residues, ends and D or L forms follow the SMILES beside them. X42 = C[C@H](CCCOC(=O)N(C)C1CCN(C)CC1)[C@@H](C(=O)[*:2])N(C)[*:1]; X82 = C[C@H](COCCN1CCOC[C@@H]1C)[C@@H](C(=O)[*:2])N(C)[*:1]; X36 = C[C@H](COCCN(C)CC(F)(F)F)[C@@H](C(=O)[*:2])N(C)[*:1]; X40 = C[C@H](COCC(=O)N1CCNCC1)[C@@H](C(=O)[*:2])N(C)[*:1]; X51 = C[C@H](CN1CCC2(COC2)C1)[C@@H](C(=O)[*:2])N(C)[*:1]; X32 = C[C@H](CN1CC2(COC2)C1)[C@@H](C(=O)[*:2])N(C)[*:1]; X50 = C[C@H](CN1CCNC(=O)C1)[C@@H](C(=O)[*:2])N(C)[*:1]; MeBmt = C/C=C/C[C@@H](C)[C@@H](O)[C@H](NC)C(=O)O; NMeL = CN[C@@H](CC(C)C)C(=O)O; NMeV = CN[C@H](C(=O)O)C(C)C; dNMeA = CN[C@H](C)C(=O)O; Abu = CC[C@H](N)C(=O)O

Legend:
cyclophilin A (CypA) = cyclophilin A (CypA) (Homo sapiens (Human), UniProt P62937); test: Inhibitor binding to cyclophilin proteins by SPR, CypA; parameters: unit not given here; settings: 1:1 binding model
cyclophilin B (CypB) = cyclophilin B (CypB) (Homo sapiens (Human), UniProt P23284); test: Inhibitor binding to cyclophilin proteins by SPR, CypB; parameters: unit not given here; settings: 1:1 binding model
Experimental: (§1) Method 1: Measuring Inhibitor Binding to Cyclophilin Proteins
(§2) Binding of inhibitors to expressed cyclophilins was determined using surface plasmon resonance (SPR) experiments. Briefly, avi-tagged cyclophilin proteins with mono-biotinylation were immobilized onto a Biotin CAPture chip (GE Healthcare, cat. #28920234). SPR experiments were carried out on an upgraded Biacore T200 system using a running buffer containing the inhibitor, 10 mM HEPES, pH 7.4, 150 mM NaCl, 0.05% P20, and 3% DMSO. Single-cycle kinetics measurements were used to study the interactions between cyclophilin inhibitors and different cyclophlins. Accordingly, compound at various concentrations was injected to the flow cells with a contact time of 1 min each at a flow rate of 50 μL/min. The final dissociation phase lasts for 10 min following the sample injection. Data was analyzed using Biacore T200 Evaluation Software Version 1.0 and a 1:1 binding model was applied to fit the data to obtain kon, koff, and KD.

CypF = CypF (Homo sapiens (Human), UniProt P30405); test: Inhibitor binding to cyclophilin proteins by SPR, CypF; settings: 1:1 binding model
Experimental: as §1, §2

[1] = system: genotype 1b subgenomic HCV replicon in Huh7.5 cells; assay type: cell-based, hepatitis C virus; settings: read-out: RPLN-1b IC50
Experimental: Method 2: Measuring Inhibitory Effects in a HCV Replicon System
Susceptibility to compounds was analyzed in Huh7.5 cells containing genotype 1a or 1b subgenomic HCV replicons co-expressing a luciferase reporter gene. The original replicons, pFK389lucubineo_3_3′_ET and pH/SG-Neo(L+I), were licensed from ReBlicon GmbH (Germany) and Apath LLC (Saint Louis, Mo.), respectively. The firefly reporter gen was replaced by renilla luciferase reporter gene using standard molecular biology techniques as follows.
Generation of genotype 1b subgenomic replicon: The renilla […]-neomycin phosphotransferase cassette was amplified from pF9 cytomegalovirus (CMV) hRluc-Neo Flexi(R) (Promega) by PCR using Accuprime super mix II (Invitrogen) and a primer set of Ascl hRlucNeo Fwd and NotI hRluc Rev. These two primers have the following sequences and introduce restriction sites for subsequent cloning: Ascl hRlucNeo Fwd, 5 […] 3(Ascl site underlined) (SEQ. ID No. 1), and NotI hRluc Rev, 5[…] 3(NotI site underlined) (SEQ ID No. 2). The amplification product was subcloned into pCR2.1-TOPO (Invitrogen). The resulting plasmid was digested with Ascl and NotI, and the excised fragment (hRluc-Neo) was ligated with the Roche Quick Ligation Kit (Roche) into pFK1389lucubineo_3_3′_ET digested with the same enzymes.
The assay medium for both, luciferase reporter HCV replicon and cytotoxicity assays contains phenol red-free DMEM and lacks G418. […] Luciferase activity of compound treated cells is measured relative to DMSO treated cells after 72 h incubation using Renilla-Glo™ Luciferase Assay (Promega). Cytotoxicity (CC50) is analyzed using Cell Titer-Glo™ (Promega).

[2] = system: peripheral blood mononuclear cells (PBMC); test: Anti-proliferative or immunosuppressive activity, BrdU incorporation in PHA-stimulated PBMC; assay type: cell-based; settings: PHA 3 μg/ml, 60 hour compound treatment; read-out: EMV PBMC IC50
Experimental: Method 3: Measuring Anti-Proliferative or Immunosuppressive Activity
The potential anti-proliferative activity of compounds on T-cells was analyzed based on the amount of bromodesoxy uridine (BrdU) incorporated into DNA of fresh peripheral blood mononuclear cells (PBMC) using the BrdU ELISA kit (Roche). The assay is performed in 96-well plate format with 30,000 PBMCs seeded per well in X-VIVO 15 medium (Lonza). T-cell proliferation was stimulated by addition of 3 μg/ml phytohemagglutinin (PHA) in PBMCs obtained from two donors.

[3] = biological target: organic anion transporting polypeptide 1B1 (OATP1B1) (Homo sapiens (Human), UniProt Q9Y6L6); test: OATP assay in CHO-OATP1B1 cells;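 further: inhibition of probe substrate uptake into the cells, ten minutes exposure, accumulated substrate read by fluorescence once cells were lysed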
[4] = genotype 1b replicon, 72 h incubation

Sequence of cyclophilin B (CypB) (P23284 34-216): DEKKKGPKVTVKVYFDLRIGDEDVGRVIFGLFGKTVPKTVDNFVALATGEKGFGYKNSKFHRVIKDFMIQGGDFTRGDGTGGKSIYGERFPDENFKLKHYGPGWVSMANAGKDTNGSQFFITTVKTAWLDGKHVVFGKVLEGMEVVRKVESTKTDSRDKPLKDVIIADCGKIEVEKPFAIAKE
Sequence of CypF (P30405 30-207): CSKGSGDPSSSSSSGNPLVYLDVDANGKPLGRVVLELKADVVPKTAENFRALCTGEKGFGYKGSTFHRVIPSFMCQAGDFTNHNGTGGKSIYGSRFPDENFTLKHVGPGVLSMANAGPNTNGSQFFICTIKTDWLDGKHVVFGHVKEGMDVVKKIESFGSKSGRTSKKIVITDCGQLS
Sequence of cyclophilin A (CypA) (P62937 whole entry): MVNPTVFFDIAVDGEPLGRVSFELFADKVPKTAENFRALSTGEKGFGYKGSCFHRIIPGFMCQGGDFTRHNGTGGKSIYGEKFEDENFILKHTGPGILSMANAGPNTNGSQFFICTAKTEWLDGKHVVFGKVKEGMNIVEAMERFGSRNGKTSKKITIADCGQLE
Sequence of organic anion transporting polypeptide 1B1 (OATP1B1) (Q9Y6L6 whole entry): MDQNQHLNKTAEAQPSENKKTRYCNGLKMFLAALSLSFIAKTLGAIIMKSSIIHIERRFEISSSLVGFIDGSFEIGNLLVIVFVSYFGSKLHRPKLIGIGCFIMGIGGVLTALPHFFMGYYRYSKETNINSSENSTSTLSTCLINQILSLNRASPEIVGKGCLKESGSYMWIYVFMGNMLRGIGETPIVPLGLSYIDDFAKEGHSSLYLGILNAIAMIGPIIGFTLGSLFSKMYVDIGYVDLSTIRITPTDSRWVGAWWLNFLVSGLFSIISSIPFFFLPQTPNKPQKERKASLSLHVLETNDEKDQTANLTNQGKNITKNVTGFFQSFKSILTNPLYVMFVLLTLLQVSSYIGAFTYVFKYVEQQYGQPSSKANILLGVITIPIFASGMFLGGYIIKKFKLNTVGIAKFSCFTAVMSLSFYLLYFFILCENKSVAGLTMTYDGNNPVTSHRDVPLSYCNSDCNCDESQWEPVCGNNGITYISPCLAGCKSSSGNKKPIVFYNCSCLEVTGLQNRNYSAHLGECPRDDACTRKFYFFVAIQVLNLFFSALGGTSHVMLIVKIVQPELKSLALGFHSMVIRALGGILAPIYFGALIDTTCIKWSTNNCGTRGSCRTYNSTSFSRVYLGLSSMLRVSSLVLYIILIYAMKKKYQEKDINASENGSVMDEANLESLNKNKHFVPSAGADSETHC

SMILES | CypA Kd (cyclophilin A (CypA)) | CypB Kd (cyclophilin B (CypB)) | CypF Kd (CypF) | IC50 [1, 4] | IC50 [2] | IC50 [3] | IC50 [1]
C/C=C/C[C@@H](C)[C@@H](O)[C@H]1C(=O)N[C@@H](CC)C(=O)N(C)[C@H](C)C(=O)N(C)[C@@H]([C@H](C)CN2CCNC(=O)C2)C(=O)N[C@@H](C(C)C)C(=O)N(C)[C@@H](CC(C)C)C(=O)N[C@@H](C)C(=O)N[C@H](C)C(=O)N(C)[C@@H](CC(C)C)C(=O)N(C)[C@@H](CC(C)C)C(=O)N(C)[C@@H](C(C)C)C(=O)N1C [Compound 2.5.30, 3-[D-Ala]-4-[(2S,3R)-3-methyl-2-(methylamino)-4-(3-oxopiperazin-1-yl)butanoyl]-cyclosporin] (cyclo(A[dA][NMeL][NMeL][NMeV][MeBmt][Abu][dNMeA][X50]V[NMeL])) | 1.7 | 1.0 | 1.1 nM | 204 nM | 34.1 µM | 2100 nM | 
C/C=C/C[C@@H](C)[C@@H](O)[C@H]1C(=O)N[C@@H](CC)C(=O)N(C)[C@H](C)C(=O)N(C)[C@@H]([C@H](C)CN2CCC3(COC3)C2)C(=O)N[C@@H](C(C)C)C(=O)N(C)[C@@H](CC(C)C)C(=O)N[C@@H](C)C(=O)N[C@H](C)C(=O)N(C)[C@@H](CC(C)C)C(=O)N(C)[C@@H](CC(C)C)C(=O)N(C)[C@@H](C(C)C)C(=O)N1C [Compound 2.5.33, 3-[D-Ala]-4-[(2S,3R)-3-methyl-2-(methylamino)-4-(2-oxa-6-azaspiro[3.4]octan-6-yl)butanoyl]-cyclosporin] (cyclo(A[dA][NMeL][NMeL][NMeV][MeBmt][Abu][dNMeA][X51]V[NMeL])) | 1.1 | 0.8 | 0.8 nM | 46 nM | 10.3 µM | 2000 nM | 
C/C=C/C[C@@H](C)[C@@H](O)[C@H]1C(=O)N[C@@H](CC)C(=O)N(C)[C@H](C(C)C)C(=O)N(C)C([C@H](C)COC)C(=O)N[C@@H](C(C)C)C(=O)N(C)[C@@H](CC(C)C)C(=O)N[C@@H](C)C(=O)N[C@H](C)C(=O)N(C)[C@@H](CC(C)C)C(=O)N(C)[C@@H](CC(C)C)C(=O)N(C)[C@@H](C(C)C)C(=O)N1C (stereo in doubt) [Compound 3.3, 3-[(R)-3-methyl-2-(methylamino)butanoyl]-4-[(2S,3S)-4-methoxy-3-methyl-2-(methylamino)butanoyl]-cyclosporin] | 13.7 | 7.4 | 8.2 nM |  | 13.2 µM | 2000 nM | 100 nM
C/C=C/C[C@@H](C)[C@@H](O)[C@H]1C(=O)N[C@@H](CC)C(=O)N(C)[C@H](C)C(=O)N(C)[C@@H]([C@H](C)CN2CC3(COC3)C2)C(=O)N[C@@H](C(C)C)C(=O)N(C)[C@@H](CC(C)C)C(=O)N[C@@H](C)C(=O)N[C@H](C)C(=O)N(C)[C@@H](CC(C)C)C(=O)N(C)[C@@H](CC(C)C)C(=O)N(C)[C@@H](C(C)C)C(=O)N1C [Compound 2.5.16, 3-[D-Ala]-4-[(2S,3R)-3-methyl-2-(methylamino)-4-(2-oxa-6-azaspiro[3.3]heptan-6-yl)butanoyl]-cyclosporin] (cyclo(A[dA][NMeL][NMeL][NMeV][MeBmt][Abu][dNMeA][X32]V[NMeL])) | 1.4 | 0.7 | 0.7 nM | 10 nM | 18 µM | 3400 nM | 
C/C=C/C[C@@H](C)[C@@H](O)[C@H]1C(=O)N[C@@H](CC)C(=O)N(C)[C@H](C)C(=O)N(C)[C@@H]([C@H](C)COCCN2CCOC[C@@H]2C)C(=O)N[C@@H](C(C)C)C(=O)N(C)[C@@H](CC(C)C)C(=O)N[C@@H](C)C(=O)N[C@H](C)C(=O)N(C)[C@@H](CC(C)C)C(=O)N(C)[C@@H](CC(C)C)C(=O)N(C)[C@@H](C(C)C)C(=O)N1C [Compound 2.8.6, 3-[D-Ala]-4-[(2S,3S)-3-methyl-2-(methylamino)-4-(2-((S)-3-methylmorpholino)ethoxy)butanoyl]-cyclosporin] (cyclo(A[dA][NMeL][NMeL][NMeV][MeBmt][Abu][dNMeA][X82]V[NMeL])) | 1.3 | 0.9 | 0.8 nM | 13 nM |  | 4800 nM | 
C/C=C/C[C@@H](C)[C@@H](O)[C@H]1C(=O)N[C@@H](CC)C(=O)N(C)[C@H](C)C(=O)N(C)[C@@H]([C@H](C)COCCN(C)CC(F)(F)F)C(=O)N[C@@H](C(C)C)C(=O)N(C)[C@@H](CC(C)C)C(=O)N[C@@H](C)C(=O)N[C@H](C)C(=O)N(C)[C@@H](CC(C)C)C(=O)N(C)[C@@H](CC(C)C)C(=O)N(C)[C@@H](C(C)C)C(=O)N1C [Compound 2.8.3, 3-[D-Ala]-4-[(2S,3S)-3-methyl-4-(2-(methyl(2,2,2-trifluoroethyl)amino)ethoxy)-2-(methylamino)butanoyl]-cyclosporin] (cyclo(A[dA][NMeL][NMeL][NMeV][MeBmt][Abu][dNMeA][X36]V[NMeL])) | 4.4 | 3.3 | 4.1 nM |  |  | 1900 nM | 
C/C=C/C[C@@H](C)[C@@H](O)[C@H]1C(=O)N[C@@H](CC)C(=O)N(C)[C@H](C)C(=O)N(C)[C@@H]([C@H](C)COCC(=O)N2CCNCC2)C(=O)N[C@@H](C(C)C)C(=O)N(C)[C@@H](CC(C)C)C(=O)N[C@@H](C)C(=O)N[C@H](C)C(=O)N(C)[C@@H](CC(C)C)C(=O)N(C)[C@@H](CC(C)C)C(=O)N(C)[C@@H](C(C)C)C(=O)N1C [Compound 2.6.1, 3-[D-Ala]-4-[(2S,3S)-3-methyl-2-(methylamino)-4-(2-oxo-2-(piperazin-1-yl)ethoxy)butanoyl]-cyclosporin] (cyclo(A[dA][NMeL][NMeL][NMeV][MeBmt][Abu][dNMeA][X40]V[NMeL])) | 1.0 | 0.7 | 0.4 nM |  |  | 6900 nM | 
C/C=C/C[C@@H](C)[C@@H](O)[C@H]1C(=O)N[C@@H](CC)C(=O)N(C)[C@H](C)C(=O)N(C)[C@@H]([C@H](C)CCCOC(=O)N(C)C2CCN(C)CC2)C(=O)N[C@@H](C(C)C)C(=O)N(C)[C@@H](CC(C)C)C(=O)N[C@@H](C)C(=O)N[C@H](C)C(=O)N(C)[C@@H](CC(C)C)C(=O)N(C)[C@@H](CC(C)C)C(=O)N(C)[C@@H](C(C)C)C(=O)N1C [Compound 2.19.9, 3-[D-Ala]-4-[(2S,3R)-3-methyl-6-((methyl(1-methylpiperidin-4-yl)carbamoyl)oxy)-2-(methylamino)hexanoyl]-cyclosporin] (cyclo(A[dA][NMeL][NMeL][NMeV][MeBmt][Abu][dNMeA][X42]V[NMeL])) | 0.8 | 0.4 | 0.4 nM |  |  | 3700 nM | 
C/C=C/C[C@@H](C)[C@@H](O)[C@H]1C(=O)N[C@@H](CC)C(=O)N(C)[C@H](CC)C(=O)N(C)[C@@H]([C@H](C)COC)C(=O)N[C@@H](C(C)C)C(=O)N(C)[C@@H](CC(C)C)C(=O)N[C@@H](C)C(=O)N[C@H](C)C(=O)N(C)[C@@H](CC(C)C)C(=O)N(C)[C@@H](CC(C)C)C(=O)N(C)[C@@H](C(C)C)C(=O)N1C [Compound 3.1, 3-[(R)-2-(methylamino)butanoic acid]-4-[(2S,3S)-4-methoxy-3-methyl-2-(methylamino)butanoyl]-cyclosporin] | 3.4 | 1.6 | 1.9 nM |  |  | 2100 nM | 
